Results taken from US20120095036A1, “NOVEL SUBSTITUTED INDAZOLE AND AZA-INDAZOLE DERIVATIVES AS GAMMA SECRETASE MODULATORS” (priority 2009, published 2012).

What was measured:
[1] = test system: Notch-processing activity of the γ-secretase-complex; assay: Notch cell-free assay (NICD production from recombinant Notch substrate N99); format: biochemical, mouse; conditions: 1 nM of a test compound, 37° C. for 6 to 22 h, western blotting
Experimental: The Notch transmembrane domain is cleaved by gamma secretase to release Notch Intracellular C-terminal Domain (NICD).
To monitor the effect of compounds on NICD production, a recombinant Notch substrate (N99) was prepared. The Notch substrate, comprised of mouse Notch fragment (V1711-E1809), an N-terminal methionine and a C-terminal FLAG sequence ([…]), was expressed in E. coli and purified on a column containing an anti-FLAG M2 affinity matrix.
A typical Notch cell-free assay consisted of 0.3-0.5 nM Notch substrate, an enriched preparation of gamma secretase and 1 nM of a test compound (compound 45 of the present invention). Controls included a gamma secretase inhibitor (GSI), such as (2S)-N-[2-(3,5-difluorophenyl)acetyl]-L-alanyl-2-phenyl-glycine 1,1-dimethylethyl ester (DAPT) or (2S)-2-hydroxy-3-methyl-N-[(1S)-1-methyl-2-oxo-2-[[(1S)-2,3,4,5-tetrahydro-3-methyl-2-oxo-1H-3-benzazepin-1-yl]amino]ethyl]-butanamide (Semagacestat), and DMSO, the final concentration of DMSO being 1%. Recombinant Notch substrate was pre-treated with 17 μM DTT (1,4-dithiothreitol) and 0.02% SDS (Sodium Dodecyl Sulfate) and heated at 65° C. for 10 min. The mixture of substrate, gamma secretase and compound/DMSO was incubated at 37° C. for 6 to 22 hours (h). Six-hour incubation was sufficient to produce the maximal amount of NICD and the cleaved product remained stable for an additional 16 h. Reaction products were processed for SDS PAGE (Sodium Dodecyl Sulfate—Poly Acrylamide Gel Electrophoresis) and western blotting. Blots were probed with an anti-Flag M2 antibody, followed by LI-COR infrared secondary antibody, and analyzed with the Odyssey Infrared Imaging System (LI-COR® Biosciences).

Aβ42 [2] = assay: Method 1: Aβ42 sandwich ELISA on media of SKNBE2 cells carrying APP 695 wild type (γ-secretase-modulating activity); format: cell-based; conditions: Homo sapiens, SKNBE2 cells APP 695 wild type, 18 hours
Procedure, shortened: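 SKNBE2 cells expressing wild-type APP695 exposed to compounds for 18 h in Ultraculture with 1% glutamine. Secreted Aβ42 in media quantified by sandwich ELISA (C-terminal capture, biotinylated 3D6 detection, TMB, 450 nm). IC50 from 4-parameter fit, top/bottom fixed 100/0, Hill slope fixed 1; toxicity checked by WST-1.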

Aβtotal [3] = assay: Method 1: Aβtotal sandwich ELISA on media of SKNBE2 cells carrying APP 695 wild type; format: cell-based; conditions: Homo sapiens, SKNBE2 cells APP 695 wild type, 18 hours
Procedure, shortened: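 SKNBE2 cells expressing wild-type APP695 treated with compound for 18 h in Ultraculture; secreted Aβtotal measured by 6E10-capture/biotinylated 4G8 sandwich ELISA with fluorogenic peroxidase read-out. IC50 from 4-parameter fit, top/bottom fixed at 100/0, Hill slope 1; toxicity checked by WST-1.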

Aβ42 [4] = assay: Method 2: Aβ42 Alphalisa on supernatant of SKNBE2 cells carrying APP 695 wild type; format: cell-based; conditions: Homo sapiens, SKNBE2 cells APP 695 wild type, overnight
Procedure, shortened: (§1)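 SKNBE2 cells expressing wild-type APP695 (10^4/well) were incubated overnight at 37 °C with compound at several concentrations. Secreted Aβ42 (C-terminal/N-terminal antibody pair) and Aβtotal (N-terminal/4G8 pair) were measured by AlphaLISA in the supernatant. IC50 values came from 4-parameter fits of percent of untreated control.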

Aβtotal [5] = assay: Method 2: Aβtotal Alphalisa on supernatant of SKNBE2 cells carrying APP 695 wild type; format: cell-based; conditions: Homo sapiens, SKNBE2 cells APP 695 wild type, overnight
Procedure, shortened: as §1

Aβ42 [6] = assay: In vivo efficacy: Aβ42 lowering in brain (ELISA); set-up: species or system mouse; conditions: brain soluble fraction; typical protocol: single oral dose, overnight fasted animals, after four hours
From the text: (§2) To determine whether acute administration of an Aβ42 lowering agent would reduce Aβ42 levels in vivo, non-transgenic rodents, e.g. mice or rats were used. Alternatively, two to three month old Tg2576 mice expressing APP695 containing the “Swedish” variant can be used or a transgenic mouse model developed by Dr. Fred Van Leuven (K.U.Leuven, Belgium) and co-workers, with neuron-specific expression of a clinical mutant of the human amyloid precursor protein [V717I] (Moechars et al., 1999 J. Biol. Chem. 274, 6483). Young transgenic mice have high levels of Aβ in the brain but no detectable Aβ deposition. At approximately 6-8 months of age, the transgenic mice start to display spontaneous, progressive accumulation of β-amyloid (A13) in the brain, eventually resulting in amyloid plaques within the subiculum, hippocampus and cortex. Animals treated with the Aβ42 lowering agent were examined and compared to those untreated or treated with vehicle and brain levels of soluble Aβ42 and total Aβ would be quantitated by standard techniques, for example, using ELISA. Treatment periods varied from hours to days and were adjusted based on the results of the Aβ42 lowering once a time course of onset of effect could be established.
(§3) A typical protocol for measuring Aβ42 lowering in vivo is shown but it is only one of many variations that could be used to optimize the levels of detectable Aβ. For example, Aβ42 lowering compounds were formulated in 20% of Captisol® (a sulfobutyl ether of β-cyclodextrin) in water or 20% hydroxypropyl β cyclodextrin. The Aβ42 lowering agents were administered as a single oral dose or by any acceptable route of administration to overnight fasted animals. After four hours, the animals were sacrificed and Aβ42 levels were analysed.
(§4) Blood was collected by decapitation and exsanguinations in EDTA-treated collection tubes. Blood was centrifuged at 1900 g for 10 minutes (min) at 4° C. and the plasma recovered and flash frozen for later analysis. The brain was removed from the cranium and hindbrain. The cerebellum was removed and the left and right hemisphere were separated. The left hemisphere was stored at −18° C. for quantitative analysis of test compound levels. The right hemisphere was rinsed with phosphate-buffered saline (PBS) buffer and immediately frozen on dry ice and stored at −80° C. until homogenization for biochemical assays.
(§5) Mouse brains were resuspended in 10 volumes of 0.4% DEA (diethylamine)/50 mM NaCl pH 10 (for non-transgenic animals) or 0.1% 3-[(3-cholamidopropyl)-dimethyl-ammonio]-1-propanesulfonate (CHAPS) in tris buffered saline (TBS) (for transgenic animals) containing protease inhibitors (Roche-11873580001 or 04693159001) per gram of tissue, e.g. for 0.158 g brain, add 1.58 ml of 0.4% DEA. All samples were sonicated for 30 sec on ice at 20% power output (pulse mode). Homogenates were centrifuged at 221.300×g for 50 min. The resulting high speed supernatants were then transferred to fresh tubes and were optionally further purified before the next step. A portion of the supernatant was neutralized with 10% 0.5 M Tris-HCl and this was used to quantify Aβtotal.
(§6) The obtained supernatants were purified with Water Oasis HLB reverse phase columns (Waters Corp., Milford, Mass.) to remove non-specific immunoreactive material from the brain lysates prior subsequent Aβ detection. Using a vacuum manifold, all solutions were passed through the columns at a rate of approximately 1 ml/min, so the vacuum pressure was adjusted accordingly throughout the procedure. Columns were preconditioned with 1 ml of 100% MeOH, before equilibration with 1 ml of H2O, Non-neutralized brain lysates were loaded onto the columns. The loaded samples were then washed twice with the first wash performed with 1 ml of 5% MeOH, and the second wash with 1 ml of 30% MeOH. Finally, the Aβ was eluted from the columns and into 100×30 mm glass tubes, with a solution of 90% MeOH with 2% NH4OH. […]

Aβtotal [7] = assay: In vivo efficacy: Aβtotal in brain (ELISA); set-up: species or system mouse; conditions: brain soluble fraction; typical protocol: single oral dose, overnight fasted animals, after four hours
From the text: as §2, §3, §4, §5, §6

| IC50 (Aβ42 [2]) [nM] | IC50 (Aβtotal [3]) [nM] | IC50 (Aβ42 [4]) [nM] | IC50 (Aβtotal [5]) [nM] | melting point [°C] | SMILES | effect on the Notch-processing activity of the γ-secretase-complex (production of NICD) [1] | Aβ42 (% Ctrl) _Mean (Aβ42 [6]) [% Ctrl] | Aβtotal (% Ctrl) _Mean (Aβtotal [7]) [% Ctrl] |
| --- | --- | --- | --- | --- | --- | --- | --- | --- |
|  |  |  |  |  | C[C@H](NC(=O)Cc1cc(F)cc(F)c1)C(=O)NC(C(=O)OC(C)(C)C)c1ccccc1 (stereo partly drawn) [DAPT, (2S)-N-[2-(3,5-difluorophenyl)acetyl]-L-alanyl-2-phenyl-glycine 1,1-dimethylethyl ester] | blocked |  |  |
|  |  |  |  |  | CC(C)[C@H](O)C(=O)N[C@@H](C)C(=O)N[C@@H]1C(=O)N(C)CCc2ccccc21 [Semagacestat, (2S)-2-hydroxy-3-methyl-N-[(1S)-1-methyl-2-oxo-2-[[(1S)-2,3,4,5-tetrahydro-3-methyl-2-oxo-1H-3-benzazepin-1-yl]amino]ethyl]-butanamide] | blocked |  |  |
| 23 | > 3000 | 18 | 6760 |  | COc1ccc(C)c(-n2nc3c(Nc4ccc(-c5cnc(C)o5)nc4)cccc3c2C)c1 [Compound 45, 2-(5-methoxy-2-methylphenyl)-3-methyl-N-[6-(2-methyl-5-oxazolyl)-3-pyridinyl]-2H-indazol-7-amine] | did not show an effect |  |  |
|  |  | 66 | > 10000 | 206 | COc1nc(Nc2cccc3cn(CC(F)(F)F)nc23)ccc1-n1cnc(C)c1 [Compound 54, N-[6-methoxy-5-(4-methyl-1H-imidazol-1-yl)-2-pyridinyl]-2-(2,2,2-trifluoroethyl)-2H-indazol-7-amine] |  | 72 | 109 |
